Data from US12527779B2, “Prostaglandin E2 (PGE2) EP4 receptor antagonists” (Domain Therapeutics, priority 2019, dated 2026).
Where a name gives a salt, the structure may show the parent alone.

The compounds below were run against T1, human EP4 (hEP4) receptor (Homo sapiens, UniProt P35408) (assay: In vitro human EP4 functional antagonist activity using BRET biosensors (cAMP EPAC biosensor, TCS2510 stimulation)). Settings: antagonist activity vs EC60 TCS2510, hEP4 in HEK-293 T cells.
T1 construct: expressed in transfected cells; host or cells: HEK-293 T cells, transient co-transfection with polyethylenimine
T1 sequence (P35408 whole entry): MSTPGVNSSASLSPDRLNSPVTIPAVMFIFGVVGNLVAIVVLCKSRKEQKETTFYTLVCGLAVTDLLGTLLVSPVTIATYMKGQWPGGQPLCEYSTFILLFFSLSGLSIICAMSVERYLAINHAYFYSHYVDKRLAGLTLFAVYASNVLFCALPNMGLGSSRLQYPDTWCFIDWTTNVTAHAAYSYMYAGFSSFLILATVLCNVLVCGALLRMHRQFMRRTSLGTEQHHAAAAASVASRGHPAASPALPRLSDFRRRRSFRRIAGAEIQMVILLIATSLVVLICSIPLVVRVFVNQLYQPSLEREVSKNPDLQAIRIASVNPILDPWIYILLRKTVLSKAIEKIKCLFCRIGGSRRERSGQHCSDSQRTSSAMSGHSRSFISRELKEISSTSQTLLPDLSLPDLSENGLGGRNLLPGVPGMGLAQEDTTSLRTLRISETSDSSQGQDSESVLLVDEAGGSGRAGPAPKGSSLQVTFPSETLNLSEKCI
Type: cell-based
How it was run: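 HEK-293T cells transiently co-transfected with hEP4 and EPAC cAMP BRET biosensor (luciferase/GFP), assayed 48 h later in HEPES-buffered saline after 1 h at 22 °C. After 5 min with compound, cells stimulated with EC60 TCS2510 and BRET read for 10 min; IC50 from 10-point, 4.5-log variable-slope fits, duplicate, two experiments.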

`C[C@H](NC(=O)C1(N2CC[C@@H](Oc3cccc(C(F)(F)F)c3)C2)CCC1)c1ccc(C(=O)O)cc1` [Example 165, 4-[(1S)-1-[[1-[(3R)-3-[3-(Trifluoromethyl)phenoxy]pyrrolidin-1-yl]cyclobutane-1-carbonyl]amino]ethyl]benzoic acid, hydrochloride] and `C[C@H](NC(=O)C1(N2CC[C@@H](Oc3cccc(C(F)(F)F)c3)C2)CCC1)c1ccc(C(N)=O)cc1` [Example 171, 4-[(1S)-1-[[1-[(3R)-3-[3-(Trifluoromethyl)phenoxy]pyrrolidin-1-yl]cyclobutane-1-carbonyl]amino]ethyl]benzamide, hydrochloride] cannot be ordered by IC50: < 100 nM for the first, < 100 nM for the second.

`C[C@H](NC(=O)C(C)(C)N1CC[C@@H](Oc2cccc(C(F)(F)F)c2)C1)c1ccc(C(=O)O)cc1` [Example 167, hydrochloride] and `C[C@H](NC(=O)C(C)(C)N1CC[C@@H](Oc2cccc(C(F)(F)F)c2)C1)c1ccc(C(N)=O)cc1` [Example 173, 4-[(1S)-1-[[2-[(3R)-3-[3-(Trifluoromethyl)phenoxy]pyrrolidin-1-yl]-2-methylpropane-carbonyl]amino]ethyl]benzamide, hydrochloride] cannot be ordered by IC50: < 100 nM for the first, < 100 nM for the second.

`C[C@H](NC(=O)C1(N2CC[C@@H](Oc3cccc(C(F)(F)F)c3)C2)CCOCC1)c1ccc(C(N)=O)cc1` [Example 168, 4-[(1S)-1-[[4-[(3R)-3-[3-(Trifluoromethyl)phenoxy]pyrrolidin-1-yl]tetrahydropyran-4-carbonyl]amino]ethyl]benzamide, hydrochloride] and `CNC(=O)c1ccc([C@H](C)NC(=O)C2(N3CC[C@@H](Oc4cccc(C(F)(F)F)c4)C3)CCOCC2)cc1` [Example 169, hydrochloride] cannot be ordered by IC50: < 100 nM for the first, < 100 nM for the second.

`C[C@H](NC(=O)C1(N2CC[C@@H](Oc3cccc(C(F)(F)F)c3)C2)CCOCC1)c1ccc(C(=O)N(C)C)cc1` [Example 170, 4-[(1S)-1-[[4-[(3R)-3-[3-(Trifluoromethyl)phenoxy]pyrrolidin-1-yl]tetrahydropyran-4-carbonyl]dimethylamino]ethyl]benzamide, hydrochloride] and `C[C@H](NC(=O)C1(N2CC[C@@H](Oc3cccc(C(F)(F)F)c3)C2)CCOCC1)c1ccc(O)cc1` [Example 181, N—((S)-1-(4-Hydroxyphenyl)ethyl)-4-((R)-3-(3-(trifluoromethyl)phenoxy)pyrrolidin-1-yl)tetrahydro-2H-pyran-4-carboxamide, hydrochloride] cannot be ordered by IC50: < 100 nM for the first, < 1000 nM for the second.

`C[C@H](NC(=O)C1(N2CC[C@@H](Oc3cccc(Cl)c3)C2)CCC1)c1ccc(C(N)=O)cc1` [Example 172, 4-[(1S)-1-[[1-[(3R)-3-(3-Chlorophenoxy)pyrrolidin-1-yl]cyclobutane-1-carbonyl]amino]ethyl]benzamide, hydrochloride] and `C[C@H](NC(=O)C(C)(C)N1CC[C@@H](Oc2cccc(Cl)c2)C1)c1ccc(C(N)=O)cc1` [Example 174, hydrochloride] cannot be ordered by IC50: < 100 nM for the first, < 100 nM for the second.

`C[C@H](NC(=O)C1(N2CC[C@@H](Oc3cccc(C(F)(F)F)c3)C2)CCOCC1)c1ccc(-c2nn[nH]n2)cc1` [Example 175, N—((S)-1-(4-(2H-Tetrazol-5-yl)phenyl)ethyl)-4-((R)-3-(3-(trifluoromethyl)phenoxy)pyrrolidin-1-yl)tetrahydro-2H-pyran-4-carboxamide, hydrochloride] and `C[C@H](NC(=O)C1(N2CC[C@@H](Oc3cccc(C(F)(F)F)c3)C2)CCOCC1)c1ccc(-c2cn[nH]c2)cc1` [Example 176, N—((S)-1-(4-(1H-Pyrazol-4-yl)phenyl)ethyl)-4-((R)-3-(3-(trifluoromethyl)phenoxy)pyrrolidin-1-yl)tetrahydro-2H-pyran-4-carboxamide, hydrochloride] cannot be ordered by IC50: < 100 nM for the first, < 100 nM for the second.

`C[C@H](NC(=O)C1(N2CC[C@@H](Oc3cccc(C(F)(F)F)c3)C2)CCOCC1)c1ccc(-c2ccn[nH]2)cc1` [Example 177, N—((S)-1-(4-(1H-Pyrazol-5-yl)phenyl)ethyl)-4-((R)-3-(3-(trifluoromethyl)phenoxy)pyrrolidin-1-yl)tetrahydro-2H-pyran-4-carboxamide, hydrochloride] and `C[C@H](NC(=O)C1(N2CC[C@@H](Oc3cccc(C(F)(F)F)c3)C2)CCOCC1)c1ccc(F)cc1` [Example 187, N—((S)-1-(4-Fluorophenyl)ethyl)-4-((R)-3-(3-(trifluoromethyl)phenoxy)pyrrolidin-1-yl)tetrahydro-2H-pyran-4-carboxamide, hydrochloride] cannot be ordered by IC50: < 100 nM for the first, < 1000 nM for the second.

`C[C@H](NC(=O)C1(N2CC[C@@H](Oc3cccc(C(F)(F)F)c3)C2)CCOCC1)c1ccc(S(N)(=O)=O)cc1` [Example 178, N—((S)-1-(4-Sulfamoylphenyl)ethyl)-4-((R)-3-(3-(trifluoromethyl)phenoxy)pyrrolidin-1-yl)tetrahydro-2H-pyran-4-carboxamide, hydrochloride] and `C[C@H](NC(=O)C1(N2CC[C@@H](Oc3cccc(C(F)(F)F)c3)C2)CCOCC1)c1ccc(S(C)(=O)=O)cc1` [Example 179, N—((S)-1-(4-(Methylsulfonyl)phenyl)ethyl)-4-((R)-3-(3-(trifluoromethyl)phenoxy)pyrrolidin-1-yl)tetrahydro-2H-pyran-4-carboxamide, hydrochloride] cannot be ordered by IC50: < 100 nM for the first, < 100 nM for the second.

`C[C@H](NC(=O)C1(N2CC[C@@H](Oc3cccc(C(F)(F)F)c3)C2)CCOCC1)c1ccc(S(C)(=N)=O)cc1` (stereo partly drawn) [Example 180, N-((1S)-1-(4-(S-Methylsulfonimidoyl)phenyl)ethyl)-4-((R)-3-(3-(trifluoromethyl)phenoxy)pyrrolidin-1-yl)tetrahydro-2H-pyran-4-carboxamide, hydrochloride] and `C[C@H](NC(=O)C1(N2CC[C@@H](Oc3cccc(C(F)(F)F)c3)C2)CCOCC1)c1ccc(C#N)cc1` [Example 182, N—((S)-1-(4-Cyanophenyl)ethyl)-4-((R)-3-(3-(trifluoromethyl)phenoxy)pyrrolidin-1-yl)tetrahydro-2H-pyran-4-carboxamide, hydrochloride] cannot be ordered by IC50: < 100 nM for the first, < 100 nM for the second.

`C[C@H](NC(=O)C1(N2CC[C@@H](Oc3cccc(C(F)(F)F)c3)C2)CCOCC1)c1ccccc1` [Example 183, N—((S)-1-Phenylethyl)-4-((R)-3-(3-(trifluoromethyl)phenoxy)pyrrolidin-1-yl)tetrahydro-2H-pyran-4-carboxamide, hydrochloride] and `C[C@H](NC(=O)C1(N2CC[C@@H](Oc3cccc(C(F)(F)F)c3)C2)CCOCC1)c1ccncc1` [Example 184, N—((S)-1-(Pyridin-4-yl)ethyl)-4-((R)-3-(3-(trifluoromethyl)phenoxy)pyrrolidin-1-yl)tetrahydro-2H-pyran-4-carboxamide, hydrochloride] cannot be ordered by IC50: < 1000 nM for the first, < 1000 nM for the second.

`C[C@H](NC(=O)C1(N2CC[C@@H](Oc3cccc(C(F)(F)F)c3)C2)CCOCC1)c1cccnc1` [Example 185, N—((S)-1-(Pyridin-3-yl)ethyl)-4-((R)-3-(3-(trifluoromethyl)phenoxy)pyrrolidin-1-yl)tetrahydro-2H-pyran-4-carboxamide, hydrochloride] and `C[C@H](NC(=O)C1(N2CC[C@@H](Oc3cccc(C(F)(F)F)c3)C2)CCOCC1)c1ccccn1` [Example 186, N—((S)-1-(Pyridin-2-yl)ethyl)-4-((R)-3-(3-(trifluoromethyl)phenoxy)pyrrolidin-1-yl)tetrahydro-2H-pyran-4-carboxamide, hydrochloride] cannot be ordered by IC50: < 1000 nM for the first, < 1000 nM for the second.
